Measurements as given in patent US5098933A, “Pharmaceutically useful Michael addition products of unsaturated aldehydes and ketones and ascorbic acid” (Theracel Corporation, priority 1990, dated 1992).

What was measured:
[1] = tested on: IgM plaque-forming cells to sheep erythrocytes; test: Immunomodulation panel: IgM plaque-forming response to SRBC; type: in vivo, C57BL/6J mice; design: Anti-SRBC Plaque Forming Cells: unit not given here
Method: (§1) Daily intraperitoneal injections of KCPBL were administered to normal animals and immunological responsiveness to mitogens and specific antigen evaluated.
(§2) Inbred C57BL/6J mice were obtained from Jackson Laboratories, Bar Harbor, Me. The animals were held for one week before use in an experiment. Prior to commencement of a study, the animals were placed into groups and weighed.
(§3) Doses and schedule--Doses were selected to bracket the range generally known to be immunostimulatory in past experiments, 1, 10, and […] daily for four days.
(§4) Immunization--All animals except for sham controls were injected with 0.5 ml of a 2% suspension of sheep erythrocyte on day zero. This occurred two days following any pretreatment and the day before the initiation of study drug administration.
Sacrifice--Animals were sacrificed by cervical dislocation on day five. The spleens were surgically removed and the following immunological evaluations conducted.
(§5) As an assessment of immunopathology in the above screening test panel, the cellularity of the spleen was evaluated by determination of the total number of splenocytes harvested. Humoral-mediated immunity was measured by enumerating IgM plaque-forming cells to the T-dependent antigen sheep erythrocytes. Cell-mediated immunity was evaluated as described above by determination of the ability of the splenocytes to produce the lymphokine interleukin-2 in response to stimulation by the mitogen concanavalin-A. Another measurement of cell-mediated immunity was the responsiveness of the splenic lymphocytes to the mitogens concanavalin-A (Con-A); phytohemagglutinin (PHA) and pokeweed mitogen (PWM) in the lymphocyte blastogenesis assay. In the latter test, the activation and proliferation of the lymphocytes to the mitogens represents the capability of the cells to sequentially pass from G0 to G1 and the S phse of the cell cycle. The responsiveness of the cells was measured by the uptake of radiolabeled 14C-thymidine.

[2] = tested on: CD-1 male mice; test: Oral Toxicity, single high dose in mice; type: in vivo; settings: 5000 mg/kg p.o., 14 days
Method: The objective of this experiment was to observe the clinical effects associated with the peroral administration of a single high dose of KCPBL to mice.
The test animals were CD-1 male mice.
Nine animals constituted the active peroral treatment group; eight animals were used in the vehicle control group.
Each mouse received a single 0.2 ml peroral (p.o.) dose using a 1.0 cc syringe fitted with a curved gavage needle.
Survival statistics were determined after the fourteenth day. All surviving mice were sacrificed on the fifteenth day, selected organs removed and weighed on a AE 100 Mettler balance and then fixed in formalin for histopathologic examination.

[3] = tested on: immune system; test: Tests to establish immunomodulatory properties (overall statement); type: in vivo; settings: normal antigen stimulated mice
Method: The following tests were conducted on various compounds within the scope of this invention to establish their immunodmodulatory properties. […] Conversely, at higher dosage levels, e.g. about 200 to 600 mg/kg body weight they function as immunoinhibitors.
The tests used to establish immunostimulation were:

[4] = tested on: splenocytes; test: Immunomodulation panel: total splenocyte counts, antigen stimulated mice; type: in vivo, C57BL/6J mice
Method: as §1
The test compound was weighed out immediately before use and dissolved in the injection vehicle. This solution was sterile-filtered using a 0.22 micron filter and the appropriate dose injected into mice in a 0.5 ml volume. The dose was individually calculated for each animal, based on animal weight on the first day of the experiment.
as §2
Group size ten male mice per dosage group.
as §3, §4
Sacrifice--Animals were sacrificed by cervical dislocation on day five. […]
as §5, with “In the latter test, the activation and proliferation of the lymphocytes to the mitogens represents the capability of the cells to sequentially pass from G0 to G1 and the S phse of the cell cycle.” left out

[5] = tested on: splenocytes; test: Immunotoxicity--Multi-dose: total spleen cell counts (Coulter Counter); type: in vivo, mice
Method: The immunotoxicological potential of KCPBL was evaluated in this experiment in which the study drug was administered to CD-1 mice for fourteen days (100 or 1000 mg/kg/day), either perorally (by gavage) or intravenously (tail vein). On the fifteenth day, the mice were weighed and sacrificed. The spleen, lungs, liver, kidneys and thymus were removed from each animal, fixed in formalin and histopathologically evaluated. In addition, a differential white blood cell count was obtained for a peripheral blood sample as well as the following tests performed: spleen cell counts (performed with Coulter Counter) and lymphocyte stimulation assays using PHA, CON-A and PWM techniques.
(§6) The study incorporated five treatment groups into its design: group 1, sham intravenous control; group 2, 100 mg/kg/day perorally; group 3, 1000 mg/kg/day intravenously; group 4, […], and, group 5, 100 mg/kg/day intravenously. Mice were administered KCPBL daily for a total of fourteen days via the oral (0.2 ml of a 147.5 mg/ml solution or a 29.5 mg/ml solution by gavage) and intravenous route (0.2 ml of 147.5 mg/ml solution or a 29.5 mg/ml solution by tail vein) to achieve a dose of 100 or 1000 mg/kg, respectively. The test dose was prepared fresh daily and dissolved in sterile non-pyrogenic saline. On the fifteenth day the mice were weighed, sacrificed, and the spleens, lungs, livers, kidneys and thymuses removed. These organs were weighed and, except for the spleens, the formalin-fixed organs were analyzed by a veterinary pathologist. Only two randomly-selected sets of animal organs per treatment group were histopathologically evaluated since the remaining three animals were used to isolate splenic lymphocytes for use in cellular immunoassays.
(§7) A leukocyte differential was obtained on peripheral blood samples and spleen cell counts (performed with Coulter Counter), and an IL-2 induction assessment as well as standard lymphocyte stimulation assays using PHA, CON-A and PWM conducted.

[6] = Parenteral Toxicity--LD50 in mice; settings: mouse, in vivo, ip
Method: (§8) The objective of this experiment was to determine the LD50 value for KCPBL when administered intraperitoneally to mice in a standard LD50 test procedure.
(§9) The test animals were CD-1 male mice. The mean weight for these animals on the day of test product administration was 25.5 grams.
(§10) KCPBL (lot 101, consisting of 42% stereoisomer A and 58% stereoisomer B) was dissolved in pyrogen-free normal (0.85%) saline (NaCl).
(§11) Five animals constituted each treatment group.
(§12) Each mouse received 0.5 ml by intraperitoneal (i.p.) injection, using a 3.0 cc syringe fitted with a 23-gauge needle.
(§13) All mice were observed daily for signs, symptoms and survival for three days. Survival statistics were determined after third day.
(§14) Two mice were randomly selected from the control and high dose test group for sacrifice and selection of tissues for histopatholigic examination.
(§15) LD50 was calculated by the method of Spearman & Karber: Basic Exercises in Immunochemistry, A. Nowatny (Ed); Pg 184-85, Springer-Verlag,N.J.

[7] = tested on: CD-1 male mice; test: Parenteral Toxicity--LD50 in mice
Method: as §8, §9, §10, §11, §12, §13, §14, §15

[8] = tested on: IL-2; test: Immunotoxicity--Multi-dose: IL-2 induction; type: in vivo, mice
Method: as §6, §7
The individual spleens of three mice from control and test groups were processed to isolate lymphocytes and the protocols for lymphocyte blastogenesis, IL-2 induction and assay were performed. The remaining two mice in each group were sacrificed and their lungs, liver, kidney, and spleen were fixed in formalin and sent to AnMed Biosafe for histopathologic examination.

With `O=C1CCC(C2(O)C(=O)OC3C(O)COC32O)C1` (centres unmarked) [KCPBL] the “PFC increase, significance” value ([1]; 1 mg/kg) was “values higher than the control group but the difference was not statistically significant”, the “Anti-SRBC Plaque Forming Cells” value ([1]; 1.0 mg/kg i.p.) was 192.8 ± 59 and the “PFC increase, significance” value ([1]; 100 and 10 mg/kg) was “A significant increase in PFC”. For the same compound, the deaths [2] was “One mouse in the KCPBL group died on the 12th day”, the deaths ([2]; listed as BL-012) was “Only one animal died” and the “immunostimulatory activity on T-helper (Th) mediated lymphocyte functions” value [3] was “demonstrated an immunostimulatory activity on T-helper (Th) mediated lymphocyte functions”. For the same compound, the Splenocytes ([4]; 1.0 mg/kg i.p.) was 4.34 ± 0.7 ×10^7, the Splenocytes ([4]; 10 mg/kg i.p.) was 3.59 ± 0.8 ×10^7 and the Splenocytes ([4]; 100 mg/kg i.p.) was 3.62 ± 0.4 ×10^7. The “Total Splenocytes” value ([5]; 100 mg/kg IV (group 5)) was 4.03 ± 0.33 × 10^7 Cells, the “Total Splenocytes” value ([5]; 100 mg/kg P.O. (group 4)) was 4.15 ± 0.18 × 10^7 Cells and the “Total Splenocytes” value ([5]; 1000 mg/kg IV (group 3)) was 3.12 ± 0.67 × 10^7 Cells. For the same compound, the “Total Splenocytes” value ([5]; 1000 mg/kg P.O. (group 2)) was 3.73 ± 0.30 × 10^7 Cells, the “total spleen cell counts, significance” value ([5]; treated vs control) was “not statistically significantly different” and the LD50 at 72 h [6] was about 8570 mg/kg. The deaths ([7]; highest dose level, i.p.) was “Only two animals died”, the “organ histopathology (lungs, liver, kidneys)” value ([7]; mouse, in vivo) was “no significant deviations in organ histopathology” and the “overt signs or symptoms of toxic response” value ([7]; mouse, in vivo, ip) was “no overt signs or symptoms observed”. It also gave an IL-2 ([8]; 100 mg/kg IV (group 5)) of 41.15 HMU/MI, an IL-2 ([8]; 100 mg/kg P.O. (group 4)) of 44.81 ± 20.8 HMU/MI and an IL-2 ([8]; 1000 mg/kg IV (group 3)) of 18.12 ± 10.50 HMU/MI. For the same compound, the IL-2 ([8]; 1000 mg/kg P.O. (group 2)) was 21.11 ± 13.69 HMU/MI and the IL-2 production ([8]; treated vs sham-injected controls) was “comparable”.
